From patent US11475578B2, “Method for analyzing behavior of cell, and use thereof” (TEIKYO UNIVERSITY, priority 2018, dated 2022)

Legend:
epidermal keratinocytes [1] = conditions: as previously reported [7]; cited from earlier work
epidermal keratinocytes [2] = assay: Monitoring of culture conditions by automatic cell tracking of epidermal keratinocyte colonies; format: cell-based, human; conditions: 10 ng/ml EGF added to the medium
Protocol: Human epidermal keratinocytes originating in neonate (purchased from KURABO) were cultured under the conditions of 37° C. and 10% CO2 using the mouse 3T3 fibroblasts treated with mitomycin C as feeder cells (refer to the reference for details of the method).
The cultured epidermal keratinocytes were subcultured on a 35-mm glass bottom dish, and time-lapse imaging was performed under the conditions of 37° C. and 10% CO2 in which imaging was automatically performed every 5 minutes with Olympus FV10i.
The automatic tracking system was applied to monitoring of culture conditions of epidermal keratinocytes (obtained and cultured in the same manner as that of Example 1-1).
Behaviors of epidermal keratinocytes under different culture conditions were compared in the same manner as that of Example 1-2. The cell locomotions were compared. Those of the case where the medium was exchanged on the day 4 of the culture (feeding) and the case where the medium was not exchanged (no feeding) were compared. […] In the lower diagrams of FIG. 14, positions of the nuclei at each time point are shown with lines.
In the culture system of the inventors of the present invention, epidermal keratinocytes show a spiral migration pattern in colonies. As clearly seen from FIG. 15, the trajectory lines in 2D images (upper side) and 3D images (lower side) twisted. […]

In the case of “epidermal growth factor [EGF, epidermal growth factor (EGF) (Up state, #01-107) added to the culture medium]”, the “migration of epidermal keratinocytes” value (epidermal keratinocytes [1]) is listed as “induces migration of epidermal keratinocytes to the outside”, the migration speed (epidermal keratinocytes [2]) is listed as “did not change” and the migration pattern (epidermal keratinocytes [2]; without EGF, spiral migration pattern in colonies) is listed as “changed”.
